# From patent US20150252013A1, “TREATMENT OF MULTIPLE SCLEROSIS AND PSORIASIS USING PRODRUGS OF METHYL HYDROGEN FUMARATE” (XenoPort, Inc., priority 2012, published 2015)
# Structures can show the parent of a compound that is named as a salt. Where two headings read alike, the source gives them in different places.
# Legend:
# [1] = test system: GST activity in the forestomach tissue of rats; assay: Glutathione S transferase (GST) activity of the cytosolic extracts of rat forestomach after oral dosing; type: in vivo; conditions: rat forestomach cytosol; oral gavage 180 mg-equivalents of MMF/kg once per day for 14 days; relative to DMF
# Procedure: wherein SARprodrug is the ratio of (i) the GST activity in the forestomach tissue of rats treated with the MMF prodrug (GSTAprodrug) to (ii) the GST activity in the forestomach tissue of rats treated with a non-irritating control solution comprised of 0.5 wt % methylcellulose and 0.1 wt % Tween 80 in 10 mM sodium acetate buffer, pH 4.5 (GSTAcontrol); and SARDMF is the ratio of (i) the GST activity in the forestomach tissue of rats treated with DMF (GSTADMF) to (ii) the GST activity in the forestomach tissue of rats treated with a non-irritating control solution comprised of 0.5 wt % methylcellulose and 0.1 wt % Tween 80 in 10 mM sodium acetate buffer, pH 4.5 (GSTAcontrol). The SARprodrug is proportional to the amount of GST isozymes induced by the MMF prodrug treatment while the SARDMF is proportional to the amount of GST isozymes induced by DMF prodrug treatment. A detailed description of how to determine the GSTArel is provided in Example 1 herein. […]
# Total cytosolic GST activity is determined by measuring the conjugation of 1-chloro-2,4-dinitrobenzene (CDNB) with reduced glutathione. […] The formation of the conjugate is monitored spectrophotometrically by measuring the rate of increase in absorbance at 340 nm over a period of 3 minutes. The rate of increase is measured in μmole/min production of GST-CDNB and is directly proportional to the GST activity in the sample. […]
# [2] = test system: rat stomach; assay: Gastrointestinal irritation evaluation in rats (Annamalai-Ma gastrointestinal irritation rat model); type: in vivo; conditions: average stomach score (0-5 scale, Table 1) from at least 5 rats; oral, once per day for 4 consecutive days
# Procedure: In order to assess gastrointestinal irritation using this model, rats are treated orally with either vehicle or the MHF prodrug to be tested (n=10 per group) at 180 mg-equivalents MHF/kg of animal body weight, dosed once per day for 4 days, followed by necropsy and gastrointestinal evaluation at 24 hrs after the final dose. Evans Blue dye is injected IV (tail vein) to visually emphasize any lesions in the gastrointestinal tissue.
# Rats were dosed once per day for 4 consecutive days with 180 mg-equivalents MHF/kg body weight per day of a number of MHF prodrugs. The animals were fasted overnight prior to necropsy. On Day 5, to help visualize lesions, 1 mL of 1% Evan's blue in saline was injected into the tail vein 30 minutes prior to euthanasia. All animals were euthanized by inhalation of carbon dioxide. A partial necropsy, limited to the abdominal cavities, was performed. The stomach and small intestine were removed. Residual material was washed away, using an irrigation syringe filled with saline. The stomach was cut along the larger curvature and washed gently with normal saline, and was examined for any lesions. The stomachs were scored in accordance with the scoring system outlined in Table 1. The stomach scores from at least 5 rats were used to calculate an average gastrointestinal irritation score, which scores are reported in Table 2.
# [3] = test system: C57BL/6 mice; assay: MOG35-55 mouse EAE model of multiple sclerosis; type: in vivo; conditions: oral 90 mg-eq MHF/kg twice daily, Days 3 to 29
# Procedure: (§1) C57BL/6 mice (6 females) were injected subcutaneously with MOG35-55 peptide in CFA with Mycobacterium tuberculosis. Pertussis toxin ([…]) was injected IV on Day 0 and Day 2 post-immunization. Animals received oral XP23829 or DMF (90 mg-eq MHF/kg twice daily) or vehicle on Days 3 to 29. Daily EAE clinical disease scores (5 point scale) were recorded. End of study MHF blood levels were determined by LC/MS/MS.
# [4] = test system: Balb/c mice; assay: Imiquimod (IMQ) mouse model of psoriasis; type: in vivo; conditions: Day -5 to Day 5
# From the text: Balb/c mice (10 males/group) received daily topical IMQ (5% cream) on shaved back and right ear for 5 days. […] Erythema score was the primary outcome measure.
# [5] = MHF and intact prodrug blood levels in the mouse efficacy studies (LC/MS/MS); type: in vivo; conditions: oral dosing
# Procedure: as §1
# [6] = Toxicokinetics at steady state in rats; type: in vivo, rat
# Procedure: (§2) Gastrointestinal toxicity was assessed by gross necropsy and histopathology. Toxicokinetics were assessed at steady state in parallel cohorts.
# [7] = Toxicokinetics at steady state in monkeys; type: in vivo, monkey
# Procedure: as §2
# [8] = test system: CD rats; assay: 4-week GLP toxicity study in rats, gastrointestinal toxicity by gross necropsy and histopathology; conditions: 500 mg/kg/day for 4 weeks
# Procedure: (§3) (N,N-diethylcarbamoyl)methyl methyl (2E)but-2-ene-1,4-dioate was administered to CD rats (10/sex/dose) at 0 (vehicle), 150, 250, or 500 mg/kg/day and monkeys (3/sex/group) at 0 (vehicle), 25, 75, or 200 mg/kg/day for 4 weeks in GLP toxicity studies. In parallel studies, DMF was administered at doses intended to deliver similar MHF exposures: in rats (10/sex/dose) at 90, 150, and 300 mg/kg/day and monkeys (3/sex/group) at 0 (vehicle), 40, 90, or 250 mg/kg/day for 4 weeks. Gastrointestinal toxicity was assessed by gross necropsy and histopathology.
# [9] = test system: CD rats; conditions: rat, in vivo, 300 mg/kg/day
# Procedure: as §3
# [10] = test system: monkeys; assay: 4-week GLP toxicity study in monkeys, gastrointestinal toxicity by gross necropsy and histopathology
# Procedure: as §3
Structure (SMILES),GI Irritation Score (180 mg-eq of MHF/kg) [2],melting point,also measured
"CCN(CC)C(=O)COC(=O)/C=C/C(=O)OC [(N,N-Diethylcarbamoyl)methyl methyl (2E)but-2-ene-1,4-dioate]",1.4,–,relative GST enzyme activity (GSTArel) [1]: less than 80%; reduction in EAE clinical score (Day 29 and overall AUC) compared to vehicle [3]: significant reduction; effect versus control in IMQ model (erythema score primary outcome) ([4]; oral 90 mg-eq/kg twice daily): significant; intact prodrug in the systemic blood [5]: not detected; conversion to MHF after absorption [6]: converted rapidly to MHF; prodrug in the systemic circulation [6]: not detected; MHF exposure compared with DMF at 300 mg/kg/day ([6]; 500 mg/kg/day): identical; conversion to MHF after absorption [7]: converted rapidly to MHF; prodrug in the systemic circulation [7]: not detected; glandular stomach findings [8]: no adverse effects on glandular stomach
"COC(=O)/C=C/C(=O)OCC(=O)N(C)C [(N,N-Dimethylcarbamoyl)methyl methyl (2E)but-2-ene-1,4-dioate]",2.4,–,–
"CCN(C(=O)COC(=O)/C=C/C(=O)OC)C1CC1 [(N-cyclopropyl-N-ethylcarbamoyl)methyl methyl 2(E)but-2-ene-1,4-dioate]",1.0,92.1 °C,–
"COC(=O)/C=C/C(=O)OCC(=O)N(C)C1CC1 [(N-cyclopropyl-N-methylcarbamoyl)methyl methyl 2(E)but-2-ene-1,4-dioate]",2.6,93.6 °C,–
COC(=O)/C=C/C(=O)OC [Dimethyl Fumarate],4.6,–,"reduction in EAE clinical score (Day 29 and overall AUC) compared to vehicle [3]: not statistically significant; effect versus control in IMQ model (erythema score primary outcome) ([4]; oral 45 or 90 mg-eq MMF/kg twice daily (either dose)): not significant; glandular stomach findings [9]: ulceration, necrosis and loss of mucosa of glandular stomach; gastric mucosal hyperplasia (histopathology) compared to (N,N-diethylcarbamoyl)methyl methyl (2E)but-2-ene-1,4-dioate ([10]; monkeys, 4 weeks): greater gastric mucosal hyperplasia; gastrointestinal irritation after 4 weeks of dosing ([10]; monkeys, 40, 90 or 250 mg/kg/day): dose dependent gastrointestinal irritation; mortality ([10]; monkeys, high dose, 4 weeks): One high dose DMF monkey died from gastric ulceration"
"COC(=O)/C=C/C(=O)OCC(=O)N1CCOCC1 [Methyl 2-morpholin-4-yl-2-oxoethyl (2E)but-2-ene-1,4-dioate]",2.9,124 to 126 °C,–
"COC(=O)/C=C/C(=O)OCCN1CCOCC1 [Methyl 2-morpholin-4-ylethyl (2E)but-2-ene-1,4-dioate]",0.0,–,–
"COC(=O)/C=C/C(=O)OCC(=O)N1CCCC1 [Methyl 2-oxo-2-pyrrolidinylethyl 2(E)but-2-ene-1,4-dioate]",3.0,102.1 °C,–
"COC(=O)/C=C/C(=O)OCCCN1CCOCC1 [Methyl 3-morpholin-4-ylpropyl (2E)but-2-ene-1,4-dioate]",0.0,–,–
"COC(=O)/C=C/C(=O)OCCCCN1CCOCC1 [Methyl 4-morpholin-4-ylbutyl (2E)but-2-ene-1,4-dioate]",0.6,–,–
"COC(=O)/C=C/C(=O)OCCCCCN1CCOCC1 [Methyl 5-morpholin-4-ylpentyl (2E)but-2-ene-1,4-dioate]",0.0,–,–
"COC(=O)/C=C/C(=O)OCCCCCCN1CCOCC1 [Methyl 6-morpholin-4-ylhexyl (2E)but-2-ene-1,4-dioate]",0.0,–,–
